Consider 18 molecules from patent US20240050428A1 (Cullgen (Shanghai), Inc., priority 2020, published 2024).

The test system of one test is MV4;11 cells. The test can be described thus: Cell viability assay (CellTiter-Glo) in MV4;11 cells, alone or with gilteritinib. Particulars: Homo sapiens, MV4-11, 72 h, MV4;11 cells, three days, CellTiter-Glo, read-out: MV4. The format is cell-based.
For a further test, the system named is MOLM-13 cells. The test can be described thus: Cell viability assay (CellTiter-Glo) in MOLM-13 cells, alone or with gilteritinib. It is filed as cell-based. The settings on record: Homo sapiens, MOLM-13, 72 h, MOLM-13 cells, three days, CellTiter-Glo.
[1] abbreviates: compound alone (without gilteritinib), 11 IC50.
The mark [2] stands for this setting: with gilteritinib 10 nM, 11 IC50 gilteritinib.
Where [3] appears, read: compound alone (without gilteritinib), read-out: MOLM-13 IC50.
Setting [4] is: with gilteritinib 20 nM, read-out: MOLM-13 IC50 gilteritinib.

Where two headings read alike, the source gives them in different places. A value given as a limit tells only on which side of the number the result lay.

For `Nc1cccc(-c2cn([C@H]3C[C@H](CNc4ccc5c(c4)C(=O)N(C4CCC(=O)NC4=O)C5=O)C3)nc2C2CC2)n1` (stereo partly drawn) [GS-273, 5-(((trans-3-(4-(6-aminopyridin-2-yl)-3-cyclopropyl-1H-pyrazol-1-yl)cyclobutyl)methyl)amino)-2-(2,6-dioxopiperidin-3-yl)isoindoline-1,3-dione], the IC50 in the test with MV4;11 cells (setting [1]) is 100 to 1000 nM; in the test on MV4;11 cells (setting [2]), 10 to 100 nM; with MOLM-13 cells (setting [3]), greater than 1000 nM; with MOLM-13 cells (setting [4]), 100 to 1000 nM.
On to `O=C1CCC(N2C(=O)c3ccc(NC[C@H]4C[C@H](n5cc(-c6cccc(NC7CNC7)n6)c(C6CC6)n5)C4)cc3C2=O)C(=O)N1` (stereo partly drawn) [GS-274, 5-(((trans-3-(4-(6-(Azetidin-3-ylamino)pyridin-2-yl)-3-cyclopropyl-1H-pyrazol-1-yl)cyclobutyl)methyl)amino)-2-(2,6-dioxopiperidin-3-yl)isoindoline-1,3-dione], for which the IC50 in the test with MV4;11 cells (setting [1]), with MV4;11 cells (setting [2]), in the test with MOLM-13 cells (setting [3]) and in the test on MOLM-13 cells (setting [4]) was greater than 1000 nM each time.
Turning to `COc1ccc(-c2cn([C@H]3C[C@H](CNc4ccc5c(c4)C(=O)N(C4CCC(=O)NC4=O)C5=O)C3)nc2C2CC2)nc1` (stereo partly drawn) [GS-275, 5-(((trans-3-(3-Cyclopropyl-4-(5-methoxypyridin-2-yl)-1H-pyrazol-1-yl)cyclobutyl)methyl)amino)-2-(2,6-dioxopiperidin-3-yl)isoindoline-1,3-dione], the IC50 in the test with MV4;11 cells (setting [1]) lay in the range of 10 to 100 nM; in the test on MV4;11 cells (setting [2]), 10 to 100 nM; with MOLM-13 cells (setting [3]), 100 to 1000 nM; with MOLM-13 cells (setting [4]), 10 to 100 nM.
As to `CN(C)c1ccc(-c2cn([C@H]3C[C@H](CNc4ccc5c(c4)C(=O)N(C4CCC(=O)NC4=O)C5=O)C3)nc2C2CC2)nc1` (stereo partly drawn) [GS-276, 5-(((trans-3-(3-Cyclopropyl-4-(5-(dimethylamino)pyridin-2-yl)-1H-pyrazol-1-yl)cyclobutyl)methyl)amino)-2-(2,6-dioxopiperidin-3-yl)isoindoline-1,3-dione], the IC50 in the test with MV4;11 cells (setting [1]) is 10 to 100 nM; in the test on MV4;11 cells (setting [2]) it was less than 10 nM; in the test on MOLM-13 cells (setting [3]) it was 100 to 1000 nM; in the test on MOLM-13 cells (setting [4]), 10 to 100 nM.
In the case of `O=C1CCC(N2C(=O)c3ccc(NC[C@H]4C[C@H](n5cc(-c6ncccc6C(F)(F)F)c(C6CC6)n5)C4)cc3C2=O)C(=O)N1` (stereo partly drawn) [GS-277, 5-(((trans-3-(3-Cyclopropyl-4-(3-(trifluoromethyl)pyridin-2-yl)-1H-pyrazol-1-yl)cyclobutyl)methyl)amino)-2-(2,6-dioxopiperidin-3-yl)isoindoline-1,3-dione], the IC50 in the test on MV4;11 cells (setting [1]), in the test on MV4;11 cells (setting [2]), with MOLM-13 cells (setting [3]) and in the test with MOLM-13 cells (setting [4]) was less than 10 nM in each case.
For `O=C1CCC(N2C(=O)c3ccc(NC[C@H]4C[C@H](n5cc(-c6nccc7[nH]ccc67)c(C6CC6)n5)C4)cc3C2=O)C(=O)N1` (stereo partly drawn) [GS-278, 5-(((trans-3-(3-Cyclopropyl-4-(1H-pyrrolo[3,2-c]pyridin-4-yl)-1H-pyrazol-1-yl)cyclobutyl)methyl)amino)-2-(2,6-dioxopiperidin-3-yl)isoindoline-1,3-dione], the IC50 in the test with MV4;11 cells (setting [1]) is less than 10 nM; in the test with MV4;11 cells (setting [2]), less than 10 nM; with MOLM-13 cells (setting [3]) it was 10 to 100 nM; in the test with MOLM-13 cells (setting [4]), less than 10 nM.
On to `O=C1CCC(N2C(=O)c3ccc(NC[C@H]4C[C@H](n5cc(-c6cc7cc[nH]c7cn6)c(C6CC6)n5)C4)cc3C2=O)C(=O)N1` (stereo partly drawn) [GS-279, 5-(((trans-3-(3-Cyclopropyl-4-(1H-pyrrolo[2,3-c]pyridin-5-yl)-1H-pyrazol-1-yl)cyclobutyl)methyl)amino)-2-(2,6-dioxopiperidin-3-yl)isoindoline-1,3-dione], for which the IC50 in the test on MV4;11 cells (setting [1]) is 100 to 1000 nM; with MV4;11 cells (setting [2]), 10 to 100 nM; in the test with MOLM-13 cells (setting [3]), greater than 1000 nM; in the test with MOLM-13 cells (setting [4]), 10 to 100 nM.
Take `O=C1CCC(N2C(=O)c3ccc(NC[C@H]4C[C@H](n5cc(-c6nccc7cnccc67)c(C6CC6)n5)C4)cc3C2=O)C(=O)N1` (stereo partly drawn) [GS-280, 5-(((trans-3-(3-Cyclopropyl-4-(2,6-naphthyridin-1-yl)-1H-pyrazol-1-yl)cyclobutyl)methyl)amino)-2-(2,6-dioxopiperidin-3-yl)isoindoline-1,3-dione]: the IC50 in the test on MV4;11 cells (setting [1]), in the test on MV4;11 cells (setting [2]), in the test with MOLM-13 cells (setting [3]) and in the test on MOLM-13 cells (setting [4]) was less than 10 nM throughout.
For `O=C1CCC(N2C(=O)c3ccc(NC[C@H]4C[C@H](n5cc(-c6nccc7ncccc67)c(C6CC6)n5)C4)cc3C2=O)C(=O)N1` (stereo partly drawn) [GS-281, 5-(((trans-3-(3-Cyclopropyl-4-(1,6-naphthyridin-5-yl)-1H-pyrazol-1-yl)cyclobutyl)methyl)amino)-2-(2,6-dioxopiperidin-3-yl)isoindoline-1,3-dione], the IC50 in the test with MV4;11 cells (setting [1]) is less than 10 nM; in the test with MV4;11 cells (setting [2]), less than 10 nM; with MOLM-13 cells (setting [3]), 10 to 100 nM; with MOLM-13 cells (setting [4]) it was less than 10 nM.
With `O=C1CCC(N2C(=O)c3ccc(NC[C@H]4C[C@H](n5cc(-c6cc7[nH]ccc7cn6)c(C6CC6)n5)C4)cc3C2=O)C(=O)N1` (stereo partly drawn) [GS-282, 5-(((trans-3-(3-Cyclopropyl-4-(1H-pyrrolo[3,2-c]pyridin-6-yl)-1H-pyrazol-1-yl)cyclobutyl)methyl)amino)-2-(2,6-dioxopiperidin-3-yl)isoindoline-1,3-dione], the IC50 in the test on MV4;11 cells (setting [1]) is 10 to 100 nM; with MV4;11 cells (setting [2]), less than 10 nM; in the test with MOLM-13 cells (setting [3]) it was 100 to 1000 nM; with MOLM-13 cells (setting [4]), 10 to 100 nM.
As for `O=C1CCC(N2C(=O)c3ccc(NC[C@H]4C[C@H](n5cc(-c6ccc(F)cn6)c(C6CC6)n5)C4)cc3C2=O)C(=O)N1` (stereo partly drawn) [GS-283, 5-(((trans-3-(3-Cyclopropyl-4-(5-fluoropyridin-2-yl)-1H-pyrazol-1-yl)cyclobutyl)methyl)amino)-2-(2,6-dioxopiperidin-3-yl)isoindoline-1,3-dione], the IC50 was 100 to 1000 nM in the test with MV4;11 cells (setting [1]), 10 to 100 nM in the test on MV4;11 cells (setting [2]), greater than 1000 nM in the test on MOLM-13 cells (setting [3]) and 10 to 100 nM in the test on MOLM-13 cells (setting [4]).
Consider `O=C1CCC(N2C(=O)c3ccc(NC[C@H]4C[C@H](n5cc(-c6nccc7ccncc67)c(C6CC6)n5)C4)cc3C2=O)C(=O)N1` (stereo partly drawn) [GS-284, 5-(((trans-3-(3-Cyclopropyl-4-(2,7-naphthyridin-1-yl)-1H-pyrazol-1-yl)cyclobutyl)methyl)amino)-2-(2,6-dioxopiperidin-3-yl)isoindoline-1,3-dione], for which the IC50 in the test on MV4;11 cells (setting [1]), in the test on MV4;11 cells (setting [2]), in the test on MOLM-13 cells (setting [3]) and in the test on MOLM-13 cells (setting [4]) was less than 10 nM in each case.
In the case of `O=C1CCC(N2C(=O)c3ccc(NC[C@H]4C[C@H](n5cc(-c6cc7nccnc7cn6)c(C6CC6)n5)C4)cc3C2=O)C(=O)N1` (stereo partly drawn) [GS-285, 5-(((trans-3-(3-Cyclopropyl-4-(pyrido[3,4-b]pyrazin-7-yl)-1H-pyrazol-1-yl)cyclobutyl)methyl)amino)-2-(2,6-dioxopiperidin-3-yl)isoindoline-1,3-dione], the IC50 was 10 to 100 nM in the test with MV4;11 cells (setting [1]), less than 10 nM in the test with MV4;11 cells (setting [2]), 100 to 1000 nM with MOLM-13 cells (setting [3]) and 10 to 100 nM in the test with MOLM-13 cells (setting [4]).
Take `O=C1CCC(N2C(=O)c3ccc(NC[C@H]4C[C@H](n5cc(-c6nccc7cccnc67)c(C6CC6)n5)C4)cc3C2=O)C(=O)N1` (stereo partly drawn) [GS-286, 5-(((trans-3-(3-Cyclopropyl-4-(1,7-naphthyridin-8-yl)-1H-pyrazol-1-yl)cyclobutyl)methyl)amino)-2-(2,6-dioxopiperidin-3-yl)isoindoline-1,3-dione]: the IC50 in the test with MV4;11 cells (setting [1]), in the test with MV4;11 cells (setting [2]), in the test with MOLM-13 cells (setting [3]) and in the test with MOLM-13 cells (setting [4]) was less than 10 nM throughout.
Regarding `O=C1CCC(N2C(=O)c3ccc(NC[C@H]4C[C@H](n5cc(-c6ncccc6OC(F)(F)F)c(C6CC6)n5)C4)cc3C2=O)C(=O)N1` (stereo partly drawn) [GS-287, 5-(((trans-3-(3-Cyclopropyl-4-(3-(trifluoromethoxy)pyridin-2-yl)-1H-pyrazol-1-yl)cyclobutyl)methyl)amino)-2-(2,6-dioxopiperidin-3-yl)isoindoline-1,3-dione], the IC50 in the test with MV4;11 cells (setting [1]), with MV4;11 cells (setting [2]), with MOLM-13 cells (setting [3]) and in the test on MOLM-13 cells (setting [4]) was less than 10 nM in each case.
On to `O=C1CCC(N2C(=O)c3ccc(NC[C@H]4C[C@H](n5cc(-c6cc7[nH]ncc7cn6)c(C6CC6)n5)C4)cc3C2=O)C(=O)N1` (stereo partly drawn) [GS-288, 5-(((trans-3-(3-Cyclopropyl-4-(1H-pyrazolo[4,3-c]pyridin-6-yl)-1H-pyrazol-1-yl)cyclobutyl)methyl)amino)-2-(2,6-dioxopiperidin-3-yl)isoindoline-1,3-dione], for which the IC50 in the test on MV4;11 cells (setting [1]) lay within 100 to 1000 nM; in the test with MV4;11 cells (setting [2]) it was 10 to 100 nM; in the test on MOLM-13 cells (setting [3]), 100 to 1000 nM; in the test on MOLM-13 cells (setting [4]), 10 to 100 nM.
On to `O=C1CCC(N2C(=O)c3ccc(NC[C@H]4C[C@H](n5cc(-c6ccccc6F)c(C6CC6)n5)C4)cc3C2=O)C(=O)N1` (stereo partly drawn) [GS-289, 5-(((trans-3-(3-Cyclopropyl-4-(2-fluorophenyl)-1H-pyrazol-1-yl)cyclobutyl)methyl)amino)-2-(2,6-dioxopiperidin-3-yl)isoindoline-1,3-dione], for which the IC50 was 10 to 100 nM in the test on MV4;11 cells (setting [1]), less than 10 nM with MV4;11 cells (setting [2]), 100 to 1000 nM with MOLM-13 cells (setting [3]) and 10 to 100 nM with MOLM-13 cells (setting [4]).
With `O=C1CCC(N2C(=O)c3ccc(NC[C@H]4C[C@H](n5cc(-c6cc(F)ccn6)c(C6CC6)n5)C4)cc3C2=O)C(=O)N1` (stereo partly drawn) [GS-290, 5-(((trans-3-(3-Cyclopropyl-4-(4-fluoropyridin-2-yl)-1H-pyrazol-1-yl)cyclobutyl)methyl)amino)-2-(2,6-dioxopiperidin-3-yl)isoindoline-1,3-dione], the IC50 is greater than 1000 nM in the test on MV4;11 cells (setting [1]), 10 to 100 nM in the test on MV4;11 cells (setting [2]), greater than 1000 nM in the test on MOLM-13 cells (setting [3]) and 100 to 1000 nM with MOLM-13 cells (setting [4]).
